This note sets out measurements from PMC4175002, “The Design and Synthesis of Potent and Selective Inhibitors of Trypanosoma brucei Glycogen Synthase Kinase 3 for the Treatment of Human African Trypanosomiasis” (Journal of Medicinal Chemistry, 2014).

One assay addresses T1, PIM2 (Homo sapiens, UniProt Q9P1W9).
T1 construct: purchased Division of Signal Transduction Therapy (DSTT), University of Dundee
The assay is described as follows: Mammalian kinase profiling (DSTT panel). The class given is biochemical. Particulars: 10 μM; average percentage of remaining activity. Here is the method:
(§1) To assess the selectivity of the aminopyrazole inhibitors, remaining activity at 10 μM concentration was measured for compounds 4f, 4m, and 4y against a panel of 80 human PKs and for compound 9g against 124 human PKs. […] Compound 4m inhibited only two PKs, namely GSK3β and CDK2, at more than 80%.
(§2) Selected compounds were screened against a panel of mammalian kinases routinely run by the Division of Signal Transduction Therapy (DSTT) at the University of Dundee in duplicate at 10 μM.[32] Enzymes included in the panel and assay conditions are reported in the literature. All biochemical assays are run below the Km^app for the ATP for each enzyme, allowing comparison of inhibition across the panel.

Another assay addresses T2, ROCK2 (Homo sapiens, UniProt O75116).
T2 construct: purchased Division of Signal Transduction Therapy (DSTT), University of Dundee
The assay is described as follows: Mammalian kinase profiling (DSTT panel). The class given is biochemical. The note with it: 10 μM; average percentage of remaining activity. As to the method: as §1, §2

The target of the next assay is T3, MNK1 (Homo sapiens, UniProt Q9BUB5).
T3 construct: purchased Division of Signal Transduction Therapy (DSTT), University of Dundee
The assay can be described thus: Mammalian kinase profiling (DSTT panel). The class given is biochemical. The note with it: 10 μM; average percentage of remaining activity. As to the method:
as §1, §2

In another assay the target is T4, PAK5 (Homo sapiens, UniProt Q9P286).
T4 construct: purchased Division of Signal Transduction Therapy (DSTT), University of Dundee
The assay is described as follows: Mammalian kinase profiling (DSTT panel). The class given is biochemical. Particulars: 10 μM; average percentage of remaining activity. As to the method: as §1, §2

A further assay concerns the target T5, SRPK1 (Homo sapiens, UniProt Q96SB4).
T5 construct: purchased Division of Signal Transduction Therapy (DSTT), University of Dundee
The assay can be described thus: Mammalian kinase profiling (DSTT panel). The note with it: 10 μM; average percentage of remaining activity. The class given is biochemical. As to the method:
as §1, §2

The target in a further assay is T6, ERK1 (Homo sapiens, UniProt P27361).
T6 construct: purchased Division of Signal Transduction Therapy (DSTT), University of Dundee
The assay can be described thus: Mammalian kinase profiling (DSTT panel). The class given is biochemical. The note with it: 10 μM; average percentage of remaining activity. Here is the method:
as §1, §2

A further assay concerns the target T7, S6K1 (Homo sapiens, UniProt P23443).
T7 construct: purchased Division of Signal Transduction Therapy (DSTT), University of Dundee
The assay is described as follows: Mammalian kinase profiling (DSTT panel). The note with it: 10 μM; average percentage of remaining activity. The class given is biochemical. As to the method: as §1, §2

The target of another assay is T8, CK2 (Homo sapiens, UniProt P68400).
T8 construct: purchased Division of Signal Transduction Therapy (DSTT), University of Dundee
The assay is described as follows: Mammalian kinase profiling (DSTT panel). Particulars: 10 μM; average percentage of remaining activity. The class given is biochemical. As to the method: as §1, §2

For another assay, the target named is T9, RSK1 (Homo sapiens, UniProt Q15418).
T9 construct: purchased Division of Signal Transduction Therapy (DSTT), University of Dundee
The assay is described as follows: Mammalian kinase profiling (DSTT panel). The class given is biochemical. Particulars: 10 μM; average percentage of remaining activity. As to the method: as §1, §2

Another assay addresses T10, CAMK1 (Homo sapiens, UniProt Q14012).
T10 construct: purchased Division of Signal Transduction Therapy (DSTT), University of Dundee
The assay can be described thus: Mammalian kinase profiling (DSTT panel). The class given is biochemical. The note with it: 10 μM; average percentage of remaining activity. Here is the method:
as §1, §2

The target in another assay is T11, PKCa (Homo sapiens, UniProt P17252).
T11 construct: purchased Division of Signal Transduction Therapy (DSTT), University of Dundee
The assay can be described thus: Mammalian kinase profiling (DSTT panel). The class given is biochemical. The note with it: 10 μM; average percentage of remaining activity. As to the method:
as §1, §2

The target of a further assay is T12, NEK2a (Homo sapiens, UniProt P51955).
T12 construct: purchased Division of Signal Transduction Therapy (DSTT), University of Dundee
T12 sequence (P51955 1-445): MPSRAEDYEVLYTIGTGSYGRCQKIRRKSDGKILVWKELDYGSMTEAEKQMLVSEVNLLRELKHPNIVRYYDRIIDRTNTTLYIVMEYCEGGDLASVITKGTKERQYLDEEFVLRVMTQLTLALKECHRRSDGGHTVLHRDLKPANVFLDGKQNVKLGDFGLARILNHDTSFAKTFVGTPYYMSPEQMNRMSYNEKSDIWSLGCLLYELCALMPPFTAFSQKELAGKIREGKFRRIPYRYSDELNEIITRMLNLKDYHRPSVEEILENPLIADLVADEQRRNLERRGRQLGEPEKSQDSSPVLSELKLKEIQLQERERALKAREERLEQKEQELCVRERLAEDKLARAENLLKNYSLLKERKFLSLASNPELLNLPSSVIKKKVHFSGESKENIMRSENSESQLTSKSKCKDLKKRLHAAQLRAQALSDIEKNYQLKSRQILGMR
The assay can be described thus: Mammalian kinase profiling (DSTT panel). The class given is biochemical. The note with it: 10 μM; average percentage of remaining activity. As to the method:
as §1, §2

The target of another assay is T13, CAMKKb (Homo sapiens, UniProt Q96RR4).
T13 construct: purchased Division of Signal Transduction Therapy (DSTT), University of Dundee
The assay is described as follows: Mammalian kinase profiling (DSTT panel). The note with it: 10 μM; average percentage of remaining activity. The class given is biochemical. Here is the method: as §1, §2

A further assay deals with T14, Lck (Homo sapiens, UniProt P06239).
T14 construct: purchased Division of Signal Transduction Therapy (DSTT), University of Dundee
The assay is described as follows: Mammalian kinase profiling (DSTT panel). The class given is biochemical. Particulars: 10 μM; average percentage of remaining activity. Here is the method:
as §1, §2

The target of the next assay is HsGSK3β (Homo sapiens, UniProt P49841). The assay is described as follows: Radiometric Flashplate potency assay, HsGSK3β. The class given is biochemical. The note with it: ratio of IC50 values. As to the method:
For compound potency determinations, a radiometric 96-well Flashplate assay (PerkinElmer) was adopted. Compounds were solubilized in DMSO at a top concentration of 3 mM and serially diluted to achieve 10-point titration of final assay concentrations from 30 μM to 0.3 nM with a final DMSO concentration of 1% (v/v). The reaction mixtures contained 1 μM biotinylated GSP2 substrate, 1 μM ATP, 3.7 KBq/well [γ-33P]-ATP and 2.5 nM TbGSK3 in the TbGSK3 kinase assay buffer. GSK3 inhibitors were screened for selectivity assessment also against HsGSK3β. For HsGSK3 assay, the reaction mixes contained 1 μM biotinylated GSP2 substrate, 2 μM ATP, 7.4 KBq/well [γ-33P]-ATP and 15 nM HsGSK3β in the TbGSK3 kinase assay buffer (25 mM Tris-HCl, pH 7.5, 10 mM MgCl2, 5 mM DTT, 0.02% CHAPS, 2 U/mL heparin). For HsCDK2/cyclin A assay, the reaction mixtures contained 1 mM CDK5 biotinylated peptide substrate (Biotin-C6-PKTPKKAKKL), 1 μM ATP, 7.4 KBq/well [γ-^33P]-ATP and 2 nM HsCDK2/cyclin A in the kinase assay buffer (50 mM Tris-HCl, pH 7.5, 10 mM MgCl2, 2 mM DTT, 100 mM NaCl, 0.2 mM EGTA, 0.02% (v/v) Brij35).
This implies that a difference of >0.3 in pIC50 can be considered statistically significant for this assay.

For a further assay, the system named is IKK. The assay is described as follows: Mammalian kinase profiling (DSTT panel). The class given is biochemical, human. Particulars: 10 μM; average percentage of remaining activity. Here is the method:
as §1, §2

Bounds are passed on as bounds.

HsGSK3β, sequence (P49841 whole entry): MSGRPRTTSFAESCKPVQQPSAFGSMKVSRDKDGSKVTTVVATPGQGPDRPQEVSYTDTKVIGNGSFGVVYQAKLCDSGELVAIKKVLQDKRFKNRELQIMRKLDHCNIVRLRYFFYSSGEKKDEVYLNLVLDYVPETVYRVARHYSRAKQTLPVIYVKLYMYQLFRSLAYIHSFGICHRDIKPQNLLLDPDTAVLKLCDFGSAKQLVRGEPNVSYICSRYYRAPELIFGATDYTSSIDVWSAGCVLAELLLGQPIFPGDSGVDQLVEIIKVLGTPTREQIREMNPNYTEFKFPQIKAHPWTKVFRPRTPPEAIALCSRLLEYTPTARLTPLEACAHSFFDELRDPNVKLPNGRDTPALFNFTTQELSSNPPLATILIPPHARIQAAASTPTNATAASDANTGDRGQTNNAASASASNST
T6 sequence (P27361 whole entry): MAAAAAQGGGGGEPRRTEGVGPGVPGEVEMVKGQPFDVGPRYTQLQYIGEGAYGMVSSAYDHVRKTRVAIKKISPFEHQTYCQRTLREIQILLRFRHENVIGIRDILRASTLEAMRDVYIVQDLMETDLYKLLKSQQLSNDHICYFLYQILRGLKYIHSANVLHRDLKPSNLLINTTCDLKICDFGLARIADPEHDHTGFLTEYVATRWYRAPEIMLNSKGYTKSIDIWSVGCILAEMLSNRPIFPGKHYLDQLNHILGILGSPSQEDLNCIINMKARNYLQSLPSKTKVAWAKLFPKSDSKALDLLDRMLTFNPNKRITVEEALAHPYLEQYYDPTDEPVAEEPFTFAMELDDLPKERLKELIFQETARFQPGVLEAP
T4 sequence (Q9P286 whole entry): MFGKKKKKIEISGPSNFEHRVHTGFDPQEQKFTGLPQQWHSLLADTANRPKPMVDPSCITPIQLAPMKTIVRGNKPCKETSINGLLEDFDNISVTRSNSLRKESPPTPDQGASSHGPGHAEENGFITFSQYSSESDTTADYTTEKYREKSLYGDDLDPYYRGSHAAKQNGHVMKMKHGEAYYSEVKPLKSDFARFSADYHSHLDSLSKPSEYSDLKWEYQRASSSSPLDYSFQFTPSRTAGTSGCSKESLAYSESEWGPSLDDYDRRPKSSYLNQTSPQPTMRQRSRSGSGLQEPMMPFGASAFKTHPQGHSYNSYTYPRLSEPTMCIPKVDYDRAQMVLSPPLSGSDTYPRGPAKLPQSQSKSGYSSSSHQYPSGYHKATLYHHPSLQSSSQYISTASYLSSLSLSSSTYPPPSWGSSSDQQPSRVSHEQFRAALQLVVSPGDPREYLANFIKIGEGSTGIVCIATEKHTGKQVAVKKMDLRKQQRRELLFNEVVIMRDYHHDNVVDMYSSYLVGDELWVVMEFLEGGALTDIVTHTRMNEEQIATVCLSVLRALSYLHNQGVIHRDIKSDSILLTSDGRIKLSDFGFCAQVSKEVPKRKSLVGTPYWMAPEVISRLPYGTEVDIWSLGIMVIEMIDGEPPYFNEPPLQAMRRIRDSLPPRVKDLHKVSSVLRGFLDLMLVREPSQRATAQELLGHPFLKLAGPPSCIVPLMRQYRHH
T2 sequence (O75116 whole entry): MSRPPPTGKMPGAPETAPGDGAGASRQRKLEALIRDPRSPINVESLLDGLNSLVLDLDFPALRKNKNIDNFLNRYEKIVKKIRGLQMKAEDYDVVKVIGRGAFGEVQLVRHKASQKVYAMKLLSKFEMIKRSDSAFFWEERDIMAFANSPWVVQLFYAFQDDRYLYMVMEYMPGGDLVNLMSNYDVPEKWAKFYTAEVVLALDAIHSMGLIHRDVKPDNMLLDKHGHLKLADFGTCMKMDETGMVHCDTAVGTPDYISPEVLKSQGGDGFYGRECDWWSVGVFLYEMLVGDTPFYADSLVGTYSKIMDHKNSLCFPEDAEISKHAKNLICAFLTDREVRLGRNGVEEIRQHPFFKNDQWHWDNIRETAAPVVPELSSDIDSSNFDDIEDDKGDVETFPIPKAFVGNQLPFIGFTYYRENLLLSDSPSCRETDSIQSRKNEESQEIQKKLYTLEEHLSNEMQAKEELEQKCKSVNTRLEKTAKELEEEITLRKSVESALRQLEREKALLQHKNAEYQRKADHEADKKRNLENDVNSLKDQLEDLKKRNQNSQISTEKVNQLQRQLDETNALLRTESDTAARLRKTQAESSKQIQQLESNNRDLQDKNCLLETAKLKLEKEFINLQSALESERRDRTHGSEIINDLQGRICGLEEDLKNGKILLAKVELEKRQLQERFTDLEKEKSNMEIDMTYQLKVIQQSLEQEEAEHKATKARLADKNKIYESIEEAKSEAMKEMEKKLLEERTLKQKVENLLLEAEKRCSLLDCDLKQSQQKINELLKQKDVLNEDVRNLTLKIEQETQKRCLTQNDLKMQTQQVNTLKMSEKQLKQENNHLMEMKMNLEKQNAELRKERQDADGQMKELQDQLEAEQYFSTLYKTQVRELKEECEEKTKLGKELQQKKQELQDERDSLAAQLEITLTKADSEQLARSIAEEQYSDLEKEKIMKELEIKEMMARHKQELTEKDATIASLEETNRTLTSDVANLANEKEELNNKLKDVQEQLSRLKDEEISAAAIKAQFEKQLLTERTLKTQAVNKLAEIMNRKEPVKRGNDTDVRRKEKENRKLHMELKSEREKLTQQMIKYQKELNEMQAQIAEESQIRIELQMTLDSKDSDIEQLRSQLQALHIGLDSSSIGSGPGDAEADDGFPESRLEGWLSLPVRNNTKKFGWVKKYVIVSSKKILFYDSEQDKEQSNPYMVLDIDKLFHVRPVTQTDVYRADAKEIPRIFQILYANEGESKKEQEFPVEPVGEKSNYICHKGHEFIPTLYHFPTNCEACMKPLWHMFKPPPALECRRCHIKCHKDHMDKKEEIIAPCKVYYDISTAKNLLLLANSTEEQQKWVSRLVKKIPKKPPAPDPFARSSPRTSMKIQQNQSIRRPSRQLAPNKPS
T7 sequence (P23443 whole entry): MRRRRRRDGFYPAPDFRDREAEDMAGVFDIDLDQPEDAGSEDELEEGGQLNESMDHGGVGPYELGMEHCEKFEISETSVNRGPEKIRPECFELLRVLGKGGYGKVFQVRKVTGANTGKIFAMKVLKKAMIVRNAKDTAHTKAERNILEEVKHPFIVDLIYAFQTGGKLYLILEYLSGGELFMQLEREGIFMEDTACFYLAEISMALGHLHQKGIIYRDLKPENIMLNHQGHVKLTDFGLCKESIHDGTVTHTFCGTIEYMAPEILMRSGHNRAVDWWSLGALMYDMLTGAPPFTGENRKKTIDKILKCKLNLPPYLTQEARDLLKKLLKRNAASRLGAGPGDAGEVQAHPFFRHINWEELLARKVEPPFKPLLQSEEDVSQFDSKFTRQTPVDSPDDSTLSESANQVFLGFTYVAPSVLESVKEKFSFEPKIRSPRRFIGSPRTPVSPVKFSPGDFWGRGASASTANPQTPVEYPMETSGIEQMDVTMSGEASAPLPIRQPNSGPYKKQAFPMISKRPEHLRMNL
T10 sequence (Q14012 whole entry): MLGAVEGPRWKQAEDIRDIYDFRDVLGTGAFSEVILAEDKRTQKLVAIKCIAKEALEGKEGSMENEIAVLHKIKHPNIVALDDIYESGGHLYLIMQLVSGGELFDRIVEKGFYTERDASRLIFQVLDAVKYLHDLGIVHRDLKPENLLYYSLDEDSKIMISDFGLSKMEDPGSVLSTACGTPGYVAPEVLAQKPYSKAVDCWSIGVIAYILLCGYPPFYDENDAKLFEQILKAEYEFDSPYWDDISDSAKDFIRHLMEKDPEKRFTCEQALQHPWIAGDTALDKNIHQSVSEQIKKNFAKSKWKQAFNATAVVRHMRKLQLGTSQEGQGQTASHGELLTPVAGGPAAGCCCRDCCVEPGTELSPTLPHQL
T14 sequence (P06239 whole entry): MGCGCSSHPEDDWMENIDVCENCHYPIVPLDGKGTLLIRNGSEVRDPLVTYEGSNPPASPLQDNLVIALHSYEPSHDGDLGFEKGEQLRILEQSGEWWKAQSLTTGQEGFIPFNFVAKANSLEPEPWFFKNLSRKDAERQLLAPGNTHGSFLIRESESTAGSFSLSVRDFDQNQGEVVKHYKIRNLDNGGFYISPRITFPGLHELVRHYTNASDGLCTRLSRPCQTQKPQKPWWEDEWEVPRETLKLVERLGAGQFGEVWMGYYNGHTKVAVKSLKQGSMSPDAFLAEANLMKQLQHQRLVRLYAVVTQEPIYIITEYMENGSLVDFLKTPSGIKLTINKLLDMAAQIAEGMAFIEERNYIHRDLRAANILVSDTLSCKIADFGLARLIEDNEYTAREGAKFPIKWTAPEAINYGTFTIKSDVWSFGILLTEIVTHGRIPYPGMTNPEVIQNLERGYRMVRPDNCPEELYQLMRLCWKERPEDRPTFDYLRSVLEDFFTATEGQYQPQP

Regarding `CO[C@H]1CC[C@H](NC(=O)c2n[nH]cc2NC(=O)c2ccccc2)CC1` [Compound 4f, 4-Benzamido-N-(4-methoxycyclohexyl)-1H-pyrazole-3-carboxamide], the “PIM2 activity compared to the control” value on PIM2 is 90%. For the same molecule, on ROCK2, the “ROCK2 activity compared to the control” value worked out at 81%. Further, at MNK1, the “MNK1 activity compared to the control” value is listed as 76%. In addition, the “PAK5 activity compared to the control” value at PAK5 turned out to be 68%. Moreover, the “SRPK1 activity compared to the control” value at SRPK1 worked out at 90%. At ERK1, the “ERK1 activity compared to the control” value is 75%. On S6K1, the “S6K1 activity compared to the control” value was determined as 100%. Further, the “CK2 activity compared to the control” value at CK2 came to 74%. The “RSK1 activity compared to the control” value at RSK1 turned out to be 74%. Also, on CAMK1, the “CAMK1 activity compared to the control” value is reported as 36%. Moreover, the “PKCa activity compared to the control” value on PKCa amounted to 49%. Moreover, the “NEK2a activity compared to the control” value on NEK2a stood at 100%. Moreover, the “CAMKKb activity compared to the control” value at CAMKKb is recorded as 34%. In addition, at Lck, the “Lck activity compared to the control” value is recorded as 76%. Moreover, the “ratio HsGSK3β/TbGSK3” value on HsGSK3β is reported as more than 0.21. In addition, the “IKK activity compared to the control” value in the assay with IKK is 68%.
Take `COc1cccc(OC)c1C(=O)Nc1c[nH]nc1C(=O)NC1CCC(OC)CC1` (stereo not drawn) [Compound 4m, 4-(2,6-Dimethoxybenzamido)-N-(4-methoxycyclohexyl)-1H-pyrazole-3-carboxamide]: the “PIM2 activity compared to the control” value on PIM2 is on record as 97%. For the same molecule, at ROCK2, the “ROCK2 activity compared to the control” value came to 74%. Besides, on MNK1, the “MNK1 activity compared to the control” value came to 81%. Also, the “PAK5 activity compared to the control” value at PAK5 is on record as 75%. Also, the “SRPK1 activity compared to the control” value on SRPK1 is on record as 78%. At ERK1, the “ERK1 activity compared to the control” value is listed as 100%. The “S6K1 activity compared to the control” value on S6K1 amounted to 100%. Also, the “CK2 activity compared to the control” value at CK2 amounted to 100%. The “RSK1 activity compared to the control” value at RSK1 stood at 70%. The “CAMK1 activity compared to the control” value at CAMK1 turned out to be 76%. The “PKCa activity compared to the control” value at PKCa came to 90%. Besides, the “NEK2a activity compared to the control” value at NEK2a was 99%. The “CAMKKb activity compared to the control” value at CAMKKb came to 50%. Moreover, the “Lck activity compared to the control” value at Lck came to 90%. Further, the “ratio HsGSK3β/TbGSK3” value on HsGSK3β is on record as less than 2.5. Moreover, the “IKK activity compared to the control” value in the assay on IKK stood at 90%.
`CO[C@H]1CC[C@H](NC(=O)c2n[nH]cc2NC(=O)c2ccc(-c3ccccc3)o2)CC1` [Compound 4y, N-(4-Methoxycyclohexyl)-4-(5-phenylfuran-2-carboxamido)-1H-pyrazole-3-carboxamide]: the “PIM2 activity compared to the control” value on PIM2 turned out to be 82%. The “ROCK2 activity compared to the control” value at ROCK2 turned out to be 72%. Further, the “MNK1 activity compared to the control” value at MNK1 was determined as 82%. Also, the “PAK5 activity compared to the control” value at PAK5 worked out at 47%. At SRPK1, the “SRPK1 activity compared to the control” value was 72%. For the same molecule, the “ERK1 activity compared to the control” value on ERK1 is 33%. Further, on S6K1, the “S6K1 activity compared to the control” value is given as 58%. Moreover, the “CK2 activity compared to the control” value at CK2 was 21%. On RSK1, the “RSK1 activity compared to the control” value is 54%. At CAMK1, the “CAMK1 activity compared to the control” value stood at 46%. Moreover, at PKCa, the “PKCa activity compared to the control” value came to 48%. Further, on NEK2a, the “NEK2a activity compared to the control” value is reported as 69%. Further, the “CAMKKb activity compared to the control” value at CAMKKb amounted to 27%. Moreover, the “Lck activity compared to the control” value at Lck worked out at 67%. The “ratio HsGSK3β/TbGSK3” value on HsGSK3β was less than 0.72. The “IKK activity compared to the control” value with IKK is reported as 71%.
